# Literature values as cited in patent publication US20260345609A1, “METHODS FOR PROMOTING PERSISTENCE OF CELL THERAPY” (Legend Biotech Ireland Limited, priority 2022, published 2026).
# Details: Short infusion; cited from earlier work
row,Compound,Half-life
1,Nc1ccn([C@@H]2O[C@H](CO)[C@@H](O)C2(F)F)c(=O)n1 [Gemcitabine],Short infusion: 32-94 min;

# Same assay, conditions: human, in vivo; cited from earlier work
row,Compound,Half-life [h]
1,N[C@@H]1CCCC[C@H]1N.[Pt+2] [Oxaliplatin],0.167 to 0.417
2,COc1cccc2c1C(=O)c1c(O)c3c(c(O)c1C2=O)C[C@@](O)(C(=O)CO)C[C@@H]3O[C@H]1C[C@H](N)[C@H](O)[C@H](C)O1 [Doxorubicin],1 to 3
3,Nc1nc(Cl)nc2c1ncn2[C@H]1C[C@H](O)[C@@H](CO)O1 [Cladribine],10
4,O=P1(N(CCCl)CCCl)NCCCO1 (centres unmarked) [cyclophosphamide],3 to 12
5,Nc1nc(F)nc2c1ncn2[C@@H]1O[C@H](CO)[C@@H](O)[C@@H]1O [fludarabine],20
6,CC(=O)O[C@H]1C(=O)[C@@]2(C)[C@H]([C@H](OC(=O)c3ccccc3)[C@]3(O)C[C@H](OC(=O)[C@H](O)[C@@H](NC(=O)c4ccccc4)c4ccccc4)C(C)=C1C3(C)C)[C@]1(OC(C)=O)CO[C@@H]1C[C@@H]2O [Paclitaxel],5.8
7,O=c1[nH]cc(F)c(=O)[nH]1 [Fluorouracil],0.267
8,CN(C)/N=N/c1[nH]cnc1C(N)=O [Dacarbazine],5
9,CC[C@]1(O)C[C@H]2CN(CCc3c([nH]c4ccccc34)[C@@](C(=O)OC)(c3cc4c(cc3OC)N(C)[C@H]3[C@@](O)(C(=O)OC)[C@H](OC(C)=O)[C@]5(CC)C=CCN6CC[C@]43[C@@H]65)C2)C1 [vinblastine],24.8

# Same assay, conditions: long infusion; cited from earlier work
row,Compound,Half-life
1,Nc1ccn([C@@H]2O[C@H](CO)[C@@H](O)C2(F)F)c(=O)n1 [Gemcitabine],long infusion: 245-638 min
